The record followed here is US12649734B2, “Bioavailable protein disulfide isomerase inhibitors” (THE CLEVELAND CLINIC FOUNDATION, priority 2020, dated 2026).

One data set concerns MM1.S-luc. Put plainly: Chou and Talalay drug combination test with BTZ. It counts as cell-based, human. The settings on record: combined with BTZ; lower dose range affecting 70% of myeloma cells or less. The protocol:
(§1) Cell vi-ability and LD50 for inhibitors were measured in 96 well culture plates (2×10^4 cells/well) after 72 h of treatment using CellTiter-Glo® Luminescent Cell Viability Assay (Promega, Madison, WI, USA). (A) Cell survival assay with MM1.S.luc and BTZ-resistant MM1.S.luc cells. […] (C) Comparison of PDIA1 protein levels in MM1.S.luc and MM1.S.luc BTZ-resistant cells. Band intensity was calculated with Image Lab Version 5.2.1. (D) Cell survival assay with 5TGM1.luc and (E) BTZ-resistant 5TGM1.luc cells. (F) MM1.S cell line was exposed to CCF642-34, and BTZ for 72 h for synergistic drug combination test according to Chou and Talalay method. If the […] remained less than 1, the two drugs were determined as synergistic. […] The number of colony-forming units were plotted for each treatment.

Data set [1] relates to MM1.S cells. Briefly: Cell viability assay (CellTiter-Glo), MM1.S. It counts as cell-based, human. The settings on record: MM cells, in vitro cell culture. Here is the method:
as §1
Cell viability assay: Cell viability was measured in 96 well culture plates (2×10^4 cells/well) using CellTiter-Glo® Luminescent Cell Viability Assay (Promega, Madison, WI, USA) according to the manufacturer's protocol.

For data set [2], the system named is MM1.S cells. Put plainly: RNA-seq gene expression profiling. The format is cell-based, human. The following applies: 3 μM, 6 h. The protocol: FIGS. 7A-7H provide graphs showing CCF642-34 is selective for PDIA1 inhibition-induced ER stress response pathway. MM1.S cells were treated with 3 μM of either CCF642 or CCF642-34 for 6 h, and gene expression analysis was performed by RNA sequencing. (A,B) Volcano plots showing CCF642-34 and CCF642 compared to DMSO control. The criteria for differential expression were at least a 2-fold change with p value less than 0.05. The analysis was performed in Originlab, Version 2019b (OriginLab Corporation, Northampton, MA, USA). […] The diagram was generated using a web-based bioinformatics server. (D,E) Hierarchical clusterings with heat map of MM1.S cells treated with vehicle CCF642-34 or CCF642 are shown for response to endoplasmic reticulum stress and unfolded protein response gene sets. (F-H) Heat maps of PERK and ATF6 target genes, Nrf2, and ER-associated degradation (ERAD) pathways are compared between control and inhibitor-treated MM1.S cells. Data analysis was performed using a web-based server and the Broad Institute Morpheus software.
RNA-seq and analysis: MM1.S cells were treated with 3 μM of either CCF642 or CCF642-34 for 6 h, and RNA was purified by using the NucleoSpin RNA kit (Takara Bio USA, Inc.; cat. #740955) according to the manufacturer's instruction. The RNA sequencings were completed as reported previously. Guan et al., Commun. Biol., 3, 1-13 (2020) The RNA-seq data were sub-mitted to the Gene Expression Omnibus (GEO) repository at the National Center for Biotechnology Information (NCBI) archives, with assigned GEO accession number GSE167097.

The nature of the next data set: Liver microsome assay. It counts as in vitro ADME. The settings on record: 0.25 mg/mL human liver microsomes. The protocol:
FIGS. 8A & 8B provide graphs showing the stability of CCF642-34 and restriction of multiple myeloma in a syngeneic mouse model by PDIA1-inhibitor CCF642-34. (A) The stability of CCF642-34 was measured against oxidative metabolism by human liver microsomes. CCF642-34 (20 μM) was incubated with 0.25 mg/mL of human liver microsomes for 5 h. The residual compound at indicated time points was measured by HPLC (Agilent 1260 Infinity II) interfaced with reverse phase C18 column using 280 nm and 245 nm detection wavelength. The standard curve of known concentrations of CCF642-34 was obtained from the area under the peak at two wavelengths, and the remaining CCF642-34 was estimated. Data are representative of two independent experiments. […] The survival of each group was monitored, and Kaplan-Meier survival analysis was performed. […]
Liver microsome assay: 20 μM CCF642 or CCF642-34 were incubated with 1 mM NADPH and 0.25 mg/mL human liver microsomes (Sigma, Cat. No: M0567) at 37° C. […] Supernatant was obtained after centrifugation at 15,000 g for 5 min and the remaining compound in supernatant was analyzed by Agilent 1260 Infinity II HPLC with Ultra-violet (UV) detector using Gemini column, […] particle size 150×2 mm (Phenomenex). […] The relative amount of drug at each time point was determined by using the UV peak detection at wavelength 254 and 282 nm. […]

Structures are written as SMILES. Some results are limits rather than exact numbers.

In the case of `NC(CC1CNc2ccccc21)C(=O)NCCCOc1ccc(N2C(=O)/C(=C/c3ccc([N+](=O)[O-])s3)SC2=S)cc1` (stereo not shown) [CCF642-34], the “combination index (CI)” value in the data set with MM1.S-luc is on record as “below 1”. Also, the “higher potency compared to CCF642” value in the data set on MM1.S cells [1] was around 2 fold. In addition, in the data set on MM1.S cells [2], the “TRIB3 upregulation compared to controls” value was around 20 fold, the “number of downregulated genes” value was found to be 156 genes and the “number of upregulated genes” value turned out to be 206 genes. Also, the “number of genes with changed expression compared to vehicle control” value in the data set with MM1.S cells [2] (2-fold change, p less than 0.05) is recorded as 362 genes. The half-life at 20 µM in “Liver microsome assay” was above 5 h.
